Conditions in all cases: read-out: Km (mM) ^3; 50 mM Britton and Robinson buffer, pH 7.0, 30 °C
Assay [1] concerns T0217. The experiment in a line: pNP release at […] nm. Type of assay: biochemical, metagenome.
Assay [2] has as its system T0216. The experiment in a line: pNP release at […] nm. It is filed as biochemical, uncultured Flavobacteriaceae bacterium.
Assay [3] has as its system T0218. The experiment in a line: pNP release at […] nm. Type of assay: biochemical, metagenome.
Assay [4] has as its system T0220. The experiment in a line: pNP release at […] nm. It is filed as biochemical, metagenome.
The test system of assay [5] is T0204. The experiment in a line: pNP release at […] nm. Type of assay: biochemical, metagenome.
In assay [6] the test system is T0207. The assay can be described thus: pNP release at […] nm. It is filed as biochemical, Osedax.
For assay [7], the system named is T0191. The experiment in a line: HPAEC-PAD. It is filed as biochemical, uncultured Marinifilaceae bacterium.
Assay [8] deals with T0193. The experiment in a line: HPAEC-PAD. Type of assay: biochemical, uncultured Flavobacteriaceae bacterium.
Assay [9] has as its system T0191. The assay can be described thus: pNP release at […] nm. Type of assay: biochemical, uncultured Marinifilaceae bacterium.
The subject of assay [10] is T0193. The assay can be described thus: pNP release at […] nm. Type of assay: biochemical, uncultured Flavobacteriaceae bacterium.
Assay [11] concerns T0215. The experiment in a line: HPAEC-PAD. Type of assay: biochemical, uncultured Marinifilaceae bacterium.
Assay [12] has as its system T0199. The assay can be described thus: pNP release at […] nm. It is filed as biochemical, metagenome.
Assay [13] concerns T0201. The assay can be described thus: pNP release at […] nm. Type of assay: biochemical, metagenome.
Assay [14] has as its system T0215. The experiment in a line: pNP release at […] nm. It is filed as biochemical, uncultured Marinifilaceae bacterium.

On to `CC(=O)N[C@H]1[C@H](Oc2ccc([N+](=O)[O-])cc2)O[C@H](CO)[C@@H](O)[C@@H]1O` [pNP-NAβGlu], for which the Michaelis-Menten constant (Km) in assay [1] was 0.028 ± 0.012 mM; in assay [2], 0.025 ± 0.006 mM; in [3] it was 0.134 ± 0.015 mM; in assay [4] it was 0.042 ± 0.004 mM.

For `O=[N+]([O-])c1ccc(O[C@@H]2O[C@H](CO)[C@@H](O)[C@H](O)[C@@H]2O)cc1` [pNP-βMan], in [5], the Km stood at 0.127 ± 0.036 mM.

For the molecule `C[C@H]1O[C@@H](Oc2ccc([N+](=O)[O-])cc2)[C@H](O)[C@@H](O)[C@H]1O` [pNP-β-Fuc], in [6], the Km amounted to 0.0118 ± 0.003 mM.

With `O=[N+]([O-])c1ccc(O[C@@H]2O[C@H](CO)[C@H](O)[C@H](O)[C@H]2O)cc1` [pNP-βGal], the Km in assay [6] was found to be 0.199 ± 0.032 mM.

With `CC(=O)N[C@H]1[C@H]([C@H](O)[C@H](O)CO)O[C@@](OC[C@H]2O[C@@H](O[C@H]3[C@H](O)[C@@H](O)C(O)O[C@@H]3CO)[C@H](O)[C@@H](O)[C@H]2O)(C(=O)O)C[C@@H]1O` (stereo partly drawn) [6-Sialyllactose], in [7], the Km came to 0.053 ± 0.001 mM.

As for `CC(=O)N[C@H]1[C@H](Oc2ccc([N+](=O)[O-])cc2)O[C@H](CO)[C@H](O)[C@@H]1O` [pNP-NAβGal], the Km in assay [3] turned out to be 0.326 ± 0.037 mM.

With `CC(=O)N[C@H]1[C@H]([C@H](O)[C@H](O)CO)O[C@@](O[C@H]2[C@@H](O)[C@@H](CO)O[C@@H](O[C@H]3[C@H](O)[C@@H](O)C(O)O[C@@H]3CO)[C@@H]2O)(C(=O)O)C[C@@H]1O` (stereo partly drawn) [3-Sialyllactose], the results for the Km in assay [8] and in assay [7] were 0.082 ± 0.06 mM and 0.031 ± 0.001 mM, respectively.

Take `CC(=O)N[C@H]1[C@H]([C@H](O)[C@H](O)CO)O[C@@](Oc2ccc([N+](=O)[O-])cc2)(C(=O)O)C[C@@H]1O` [pNP-Neu5Ac]: the figures for the Km in assay [9] and in assay [10] were 0.18 ± 0.03 mM and 0.55 ± 0.17 mM, respectively.

As to `CCCCCCCCCCCCC/C=C/[C@@H](O)[C@@H](N)CO[C@@H]1O[C@H](CO)[C@@H](O[C@@H]2O[C@H](CO)[C@H](O[C@H]3O[C@H](CO)[C@H](O)[C@H](O)[C@H]3O)[C@H](O)[C@H]2O)[C@H](O)[C@H]1O` [Globotriaosylsphingosine], in [11], the Michaelis constant (Km) amounted to 0.058 ± 0.007 mM.

On to `C[C@@H]1O[C@@H](Oc2ccc([N+](=O)[O-])cc2)[C@H](O)[C@H](O)[C@H]1O` [pNP-αRham], for which the Km in [12] came to 1.08 ± 0.15 mM.

As to `O=[N+]([O-])c1ccc(O[C@H]2O[C@H](CO)[C@H](O)[C@H](O)[C@H]2O)cc1` [pNP-αGal], the results for the Km in [13] and in assay [14] were 6.22 ± 0.93 mM and 0.062 ± 0.008 mM, respectively.

On to `OC[C@H]1O[C@H](O[C@H]2[C@@H](O)[C@@H](CO)OC(O)[C@@H]2O)[C@H](O)[C@@H](O)[C@H]1O` (stereo partly drawn) [Galactose-α-1,3-galactose], for which the Km in [11] came out at 0.048 ± 0.009 mM.

As a reminder, the Km is the concentration of substrate that gives half-maximal velocity.

The record behind these values is publication PMC8645421 (Computational and Structural Biotechnology Journal, 2021).
